The results in this text go back to patent US7795310B2, “Methods and reagents for the treatment of metabolic disorders” (CombinatoRx, Inc., priority 2004, dated 2010).

This test has as its system 3T3-L1 adipocytes. Put plainly: Insulin-stimulated 14C-glucose uptake in differentiated adipocytes (Example 1). Format: cell-based, mouse. To be noted: Bezafibrate 0 μM, average of four biological replicates. As for the experimental part:
Differentiated mouse adipocytes were employed to identify combinations of agents that have the ability to increase glucose uptake upon insulin stimulation, as detected by scintillation counting of radiolabelled glucose (using, for example, the Perkin Elmer 1450 Microbeta JET reader). These assays were conducted as follows.
Complete media, also referred to as “Prees” media, was prepared as follows. Dulbecco's Modified Eagle's Medium (DMEM) was supplemented with L-glutamine, penicillin-G and streptomycin (pen/strep), and heat-inactivated fetal bovine serum (FBS) (heat inactivated at […] for 30 minutes). Because serum can affect the growth, adherence, and differentiation of cells, any new lot of serum was first tested prior to use. Media was equilibrated in the incubator (5% CO2) until the pH was within the proper range (˜7), as indicated by the red/orange color of the indicator dye. If the media became pink (indicating a high pH), we discarded the media as basic conditions can affect cells and denature the insulin used in the differentiation medium-1 (DM1) and the differentiation medium-2 (DM2).
Differentiation media-1 (DM1) was prepared by supplementing DMEM with 10% FBS, L-glutamine, pen/strep, IBMX (375 μM), insulin (120 nM), and dexamethasone (188 nM). Differentiation media-2 (DM2) was prepared by supplementing DMEM with 10% FBS, L-glutamine, pen/strep, and insulin (120 nM).
Cell culture plates were gelatinized as follows. Gelatin (1% w/v in distilled water) was autoclaved and stored at room temperature. The bottom of each cell culture well was covered uniformly in the gelatin solution, ensuring that no bubbles were formed. This solution was removed leaving behind a thin film of gelatin. These plates were left to dry under the tissue culture hood. Plates were next washed with PBS, after which a 0.5% glutaric dialdehyde solution (glutaraldehyde in distilled water) was added to the cell culture wells. After ten minutes, wells were washed twice with DMEM containing pen-strep. Each washing step should last for approximately five minutes.
3T3-L1 pre-adipocyte cells were split approximately every 2-3 days or upon reaching a confluence of approximately 60%. Overconfluency may affect the ability of these cells to differentiate into adipocytes.
D-(+)-glucose (“cold” glucose, not radiolabeled) was added to DPBS mix to a final concentration of 10 mM.
Lysis buffer, a mixture of a base (e.g., sodium hydroxide at a final concentration of 0.5N) and a detergent (e.g., sodium dodecyl sulphate (SDS) diluted to a final concentration of 0.1% w/v) was freshly prepared each time (within one to two hours of use). Prior to use, lysis buffer was warmed up to a temperature exceeding that of room temperature for a period of approximately 30 minutes to avoid precipitation of the buffer.
Pre-adipocyte 3T3-L1 cells were plated at a density of approximately 5000 cells/well (in black NUNC 96 well plate). These cells were differentiated into adipocytes in two separate steps. Initially, cells were cultured in differentiation medium-1 (DM1) (day 1 of adipocyte differentation) for a period of two to three days. DM1 prevents proliferation and induces the expression of adipocyte-specific genes. Cells were next cultured in differentiation medium-2 (DM2) for 3 to 4 days, after which the culture media was replaced by fresh DM2. The glucose uptake assay was performed at day 9-15 of differentiation.
Two days prior to the experiment (at day 7-13 of differentiation), DM2 was removed and replaced with fresh Prees media. Candidate compounds were added at this time, allowing an incubation period of approximately 48 hours. On the day of the experiment, cells (now at day 9 to 15 of differentiation) were serum starved for three hours in DPBS, magnesium sulfate (0.8 mM), and Hepes (10 mM) at pH ˜7. After this incubation period, fresh DPBS containing insulin (10 nM) was added to the adipocytes. Fresh DPBS without any insulin were placed on cells that served as a negative control. […]

In the case of `O=C(O)c1cc(-c2ccc(F)cc2F)ccc1O` [Diflunisal, 2′,4′-difluoro-4-hydroxy-[1,1′-biphenyl]-3-carboxylic acid], the “average fold increase in insulin-stimulated glucose uptake compared to vehicle treated control” value came to 1.12 fold (Diflunisal 9 μM), 1.19 fold (Diflunisal 18 μM) and 1.52 fold (Diflunisal 36 μM).
